Here are results for 6 compounds from DBAASP.

In brackets after ≈: the same amount, converted by molar mass.

Holding throughout (assay): ≥ marks a high value that may be exact or a test limit, other limits are often not marked, values filed in µg/mL are converted to µM
In experiment [1] the test system is Pseudomonas aeruginosa ATCC 27853.
Experiment [2] has as its system Trichosporon beigelii KCTC 7707.
Experiment [3] has as its system Salmonella typhimurium KCTC 1926.
In experiment [4] the test system is Pseudomonas aeruginosa 4007.
Experiment [5] deals with Candida albicans KCTC 7270.
Experiment [6] relates to Bacillus subtilis KCTC 1998.
Experiment [7] deals with Escherichia coli ATCC 25922.
Experiment [8] concerns Escherichia coli CCARM 1238.
Experiment [9] relates to Staphylococcus aureus ATCC 25923.
Experiment [10] has as its system Staphylococcus aureus CCARM 3518.
For experiment [11], the system named is Escherichia coli CCARM 1229.
Experiment [12] deals with Pseudomonas aeruginosa 4891.
The test system of experiment [13] is Listeria monocytogenes KCTC 3710.
Experiment [14] concerns Staphylococcus aureus CCARM 3090.
The subject of experiment [15] is Escherichia coli W160-37.
Experiment [16] concerns Staphylococcus aureus 8530.
Experiment [17] has as its system Pseudomonas putida NCIM 2102.
In experiment [18] the test system is Bacillus subtilis.
In experiment [19] the test system is Pseudomonas aeruginosa 5167.
Experiment [20] concerns Pseudomonas aeruginosa 1570.
For experiment [21], the system named is Staphylococcus epidermidis KCTC 1917.
The test system of experiment [22] is Pseudomonas aeruginosa CCARM 2095.
The subject of experiment [23] is Staphylococcus aureus CCARM 3089.
For experiment [24], the system named is Enterococcus faecium ATCC 51559.
In experiment [25] the test system is Staphylococcus aureus CCARM 3095.
In experiment [26] the test system is Bacillus subtilis KCTC 3068.
For experiment [27], the system named is Pseudomonas aeruginosa KCTC 1637.
In experiment [28] the test system is Pseudomonas aeruginosa CCARM 2109.
Experiment [29] relates to Staphylococcus aureus LAC.
In experiment [30] the test system is Candida albicans CCARM 14001.
In experiment [31] the test system is Colletotrichum gloeosporioides KCTC 6169.
Experiment [32] deals with Candida albicans CCARM 14004.
The subject of experiment [33] is Fusarium oxysporum KCTC 16909.
Experiment [34] concerns Candida albicans CCARM 14020.
The test system of experiment [35] is Aspergillus flavus KCTC 6905.
In experiment [36] the test system is Trichoderma virens KCTC 16924.
In experiment [37] the test system is Candida albicans CCARM 14007.
For experiment [38], the system named is Trichoderma viride KCTC 16992.
The subject of experiment [39] is Candida parapsilosis CCARM 14016.
Experiment [40] deals with Fusarium solani KCTC 6326.
Experiment [41] deals with Fusarium verticillioides KCTC 6149.
In experiment [42] the test system is Fusarium graminearum KCTC 16656.
Experiment [43] deals with Candida krusei CCARM 14017.
Experiment [44] relates to Trichophyton rubrum KCTC 6345.

What is called MIC is the smallest concentration in the dilution series that meets the test's criterion for growth inhibition. A lower MIC goes with a more susceptible organism. Consider `CC[C@H](C)[C@H](NC(=O)CNC(=O)[C@H](CCC(N)=O)NC(=O)[C@H](Cc1ccccc1)NC(=O)[C@@H](NC(=O)[C@H](CCCCN)NC(=O)[C@H](CCCCN)NC(=O)[C@H](CC(C)C)NC(=O)[C@H](C)NC(=O)[C@H](CC(N)=O)NC(=O)[C@H](CC(C)C)NC(=O)[C@@H](N)Cc1c[nH]c2ccccc12)C(C)C)C(=O)N[C@@H](Cc1cnc[nH]1)C(=O)N[C@@H](CCC(=O)O)C(=O)N[C@@H](C)C(=O)N[C@H](C(=O)N[C@@H](CCCCN)C(=O)N[C@@H](CC(C)C)C(=O)N[C@H](C(=O)N[C@@H](Cc1c[nH]c2ccccc12)C(=O)N[C@@H](CC(N)=O)C(=O)N[C@@H](Cc1c[nH]c2ccccc12)C(=O)N[C@H](C(=O)N[C@@H](CCC(N)=O)C(N)=O)C(C)C)[C@@H](C)CC)[C@@H](C)CC` [WLNALKKVFQGIHEAIKLIWNWVQ], for which the MIC in experiment [1] was 16 µM (≈ 47 µg/mL); in experiment [2], at least 32 µM; in experiment [3] it was 16 µM (≈ 47 µg/mL); in experiment [4], at least 64 µM; in experiment [5], at least 32 µM; in experiment [6], at least 32 µM. Moreover, the MIC in [7] was 16 µM (≈ 47 µg/mL); in [8], at least 32 µM; in experiment [9] it was 32 µM (≈ 93.9 µg/mL); in [10] it was at least 32 µM; in [11] it was at least 32 µM; in experiment [12], at least 64 µM. The MIC in [13] and in experiment [14] was at least 32 µM each time.
As for `CC[C@H](C)[C@H](NC(=O)[C@H](CC(C)C)NC(=O)[C@H](CCCCN)NC(=O)[C@H](CCCCN)NC(=O)[C@H](CC(C)C)NC(=O)CN)C(=O)N[C@@H](CO)C(=O)N[C@@H](Cc1c[nH]c2ccccc12)C(=O)N[C@H](C(=O)N[C@@H](CCCCN)C(=O)N[C@@H](CCCN=C(N)N)C(=O)N[C@@H](C)C(=O)N[C@@H](C)C(=O)N[C@@H](CCC(N)=O)C(=O)N[C@@H](CCC(N)=O)C(=O)NCC(N)=O)[C@@H](C)CC` [GLKKLISWIKRAAQQG], the MIC in experiment [15] worked out at 6.81 µM (≈ 12.2 µg/mL); in experiment [16], 3.93 µM (≈ 7.07 µg/mL); in experiment [17], 30.5 µM (≈ 54.7 µg/mL); in experiment [18], 1.57 µM (≈ 2.83 µg/mL).
With `CC(C)C[C@H](NC(=O)[C@H](CC(C)C)NC(=O)[C@H](CCCCN)NC(=O)[C@H](CCCCN)NC(=O)[C@H](CC(C)C)NC(=O)[C@H](C)NC(=O)[C@H](CCCCN)NC(=O)[C@H](CC(C)C)NC(=O)[C@@H](N)Cc1ccccc1)C(N)=O` [FLKALKKLL], the MIC in experiment [19] is at least 119 µM; in [20] it was 10.5 µM (≈ 11.3 µg/mL).
Take `CC[C@H](C)[C@H](NC(=O)[C@H](Cc1ccccc1)NC(=O)[C@H](CCCN=C(N)N)NC(=O)[C@@H](N)CCCCN)C(=O)N[C@@H](CCCCN)C(=O)N[C@@H](Cc1c[nH]c2ccccc12)C(=O)N[C@@H](Cc1ccc(O)cc1)C(=O)N[C@@H](CC(N)=O)C(=O)N[C@@H](C)C(=O)N[C@@H](Cc1c[nH]c2ccccc12)C(=O)N[C@@H](CC(N)=O)C(=O)N[C@@H](CCC(=O)O)C(=O)N[C@@H](CCCCN)C(=O)N[C@@H](CCCN=C(N)N)C(=O)N[C@@H](CCCN=C(N)N)C(=O)N[C@H](C(=O)N[C@@H](Cc1ccc(O)cc1)C(N)=O)C(C)C` [KRFIKWYNAWNEKRRVY]: the MIC came out at 4 µM (≈ 9.43 µg/mL) in [3]; 8 µM (≈ 18.9 µg/mL) in experiment [21]; 4 µM (≈ 9.43 µg/mL) in [22]; 8 µM (≈ 18.9 µg/mL) in experiment [23]; 8 µM (≈ 18.9 µg/mL) in experiment [24]; 8 µM (≈ 18.9 µg/mL) in experiment [25]. Also, the MIC is 8 µM (≈ 18.9 µg/mL) in [26], 16 µM (≈ 37.7 µg/mL) in experiment [27], 16 µM (≈ 37.7 µg/mL) in experiment [28] and 8 µM (≈ 18.9 µg/mL) in [14].
As for `C[C@H](N)C(=O)N[C@@H](C)C(=O)N[C@@H](C)C(=O)N[C@@H](C)C(=O)N[C@@H](CCCN=C(N)N)C(=O)N[C@@H](CCCN=C(N)N)C(=O)N[C@@H](CCCN=C(N)N)C(=O)N[C@@H](CCCN=C(N)N)C(=O)O` [AAAARRRR], the MIC in experiment [7] was over 138 µM; in [29], at least 138 µM.
As to `NCCCC[C@H](NC(=O)[C@H](CCCCN)NC(=O)[C@H](Cc1cnc[nH]1)NC(=O)[C@H](CCCCN)NC(=O)[C@H](CCCCN)NC(=O)[C@H](Cc1cnc[nH]1)NC(=O)[C@H](CCCCN)NC(=O)[C@H](CCCCN)NC(=O)[C@H](Cc1cnc[nH]1)NC(=O)[C@H](CCCCN)NC(=O)[C@H](CCCCN)NC(=O)[C@H](Cc1cnc[nH]1)NC(=O)[C@H](CCCCN)NC(=O)[C@H](CCCCN)NC(=O)[C@H](Cc1cnc[nH]1)NC(=O)[C@H](CCCCN)NC(=O)[C@H](CCCCN)NC(=O)[C@@H](N)Cc1cnc[nH]1)C(N)=O` [HKKHKKHKKHKKHKKHKK], the MIC in experiment [30] came out at 16 µM (≈ 38 µg/mL); in [31], 1 µM (≈ 2.38 µg/mL); in [32], 16 µM (≈ 38 µg/mL); in experiment [33] it was 2 µM (≈ 4.76 µg/mL); in experiment [5] it was 16 µM (≈ 38 µg/mL); in experiment [34] it was 16 µM (≈ 38 µg/mL). For the same compound, the MIC in [35] worked out at 4 µM (≈ 9.51 µg/mL); in [36], 8 µM (≈ 19 µg/mL); in experiment [37] it was 16 µM (≈ 38 µg/mL); in experiment [38], 2 µM (≈ 4.76 µg/mL); in [39], 16 µM (≈ 38 µg/mL); in experiment [40] it was 2 µM (≈ 4.76 µg/mL). The MIC in experiment [41] was determined as 2 µM (≈ 4.76 µg/mL); in experiment [42] it was 8 µM (≈ 19 µg/mL); in experiment [43] it was 4 µM (≈ 9.51 µg/mL); in experiment [44], 8 µM (≈ 19 µg/mL).
